We go through 34 compounds from patent publication US12509438B2, “Pyrazole derivative” (Aptabio Therapeutics Inc., priority 2020, dated 2025).

One test relates to differentiated HL-60 cells. Briefly: ROS production induced by PMA in HL-60 cells differentiated into neutrophil cells (L-012 luminescence). The test is classed as cell-based, human. The conditions noted are these: Homo sapiens, HL-60, synthetic example compounds 0.5 uM, read-out: ROS production inhibitory effect. An excerpt: (§1) In order to confirm an effect of the synthetic example compounds on ROS production from fibroblasts and specific substrate cells, ROS production was induced by stimulation of PMA (phorbol 12-myristate 13-acetate), TGF-β1, palmitate or high concentration-glucose, or the like for HL-60 cells (Korean Cell Line Bank), NHLF(normal human lung fibroblast, Lonza), LX-2 (human hepatic stellate cells, Sigma), ARPE19 (human retinal pigment epithelial cell, ATCC), KEL-FIB (Keloid fibroblast, ATCC) cells differentiated into neutrophil cells by treatment of DMSO, and the inhibitory effect of ROS production of the synthetic example compounds was observed under this condition.
HL-60 cells (human leukemia cells, ATCC) was suspended in a medium comprising 1.25% DMSO (RPMI+10% FBS) and cultured under the condition of 5% CO2, 37° C. for 6 days to induce differentiation into neutrophil cells. […] Then, PMA of […] was treated in each well comprising cells and a drug to induce production of ROS, and this ROS production was measured by observing the level of luminescence of each well using 100 μM L-012.
For the compound `Oc1c2c(nn1-c1ccccc1)CCN(Cc1ccccc1)C2` [compound 40], the inhibition at 0.5 µM was in the range of 50 to 70%.

As for `CCN1CCc2c(nn(-c3ccccn3)c2O)C1` [compound 15], the inhibition at 0.5 µM was below 30%.

Regarding `Oc1c2c(nn1-c1ccccc1)CN(Cc1ccccc1)CC2` [compound 38], the inhibition at 0.5 µM is above 70%.

In the case of `Oc1c2c(nn1-c1ccccc1Cl)CCN(Cc1ccccc1)C2` [compound 42], the inhibition at 0.5 µM was below 30%.

`N#Cc1ccc(CN2CCc3nn(-c4ccc(C(F)(F)F)cn4)c(O)c3C2)cc1` [compound 76]: the inhibition at 0.5 µM lay in the range of 30 to 50%.

Take `Oc1c2c(nn1-c1ccc(Br)cc1)CCN(Cc1ccccc1)C2` [compound 41]: the inhibition at 0.5 µM was in the range of 50 to 70%.

Turning to `Oc1c2c(nn1-c1ccc(Cl)cn1)CN(Cc1ccccc1)CC2` [compound 35], the inhibition at 0.5 µM was in the range of 50 to 70%.

In the case of `O=C(NC1CCCCC1)N1CCc2c(nn(-c3ccccn3)c2O)C1` [compound 23], the inhibition at 0.5 µM was below 30%.

Regarding `Oc1c2c(nn1-c1ccccn1)CCN(Cc1ccccc1)C2` [compound 34], the inhibition at 0.5 µM is 30 to 50%.

For the compound `Oc1c2c(nn1-c1ccccn1)CN(Cc1ccccc1)CC2` [compound 3], the inhibition at 0.5 µM was 50 to 70%.

Turning to `O=C(OCc1ccc([N+](=O)[O-])cc1)N1CCc2c(nn(-c3ccccn3)c2O)C1` [compound 32], the inhibition at 0.5 µM lay within 30 to 50%.

Consider `Oc1c2c(nn1-c1ccccn1)CCN(Cc1cccc(C(F)(F)F)c1)C2` [compound 77], for which the inhibition at 0.5 µM lay in the range of 30 to 50%.

As to `Oc1c2c(nn1-c1ccc(C(F)(F)F)cn1)CCN(Cc1cccc(C(F)(F)F)c1)C2` [compound 50], the inhibition at 0.5 µM is 30 to 50%.

On to `Oc1c2c(nn1-c1ccc(Br)cc1)CN(Cc1ccccc1)CC2` [compound 37], for which the inhibition at 0.5 µM was above 70%.

In the case of `Oc1c2c(nn1-c1ccc(C(F)(F)F)cn1)CCN(Cc1cc3ccccc3cn1)C2` [compound 80], the inhibition at 0.5 µM is 50 to 70%.

For `Oc1c2c(nn1-c1ccccn1)CN(Cc1ccc(F)cc1)CC2` [compound 6], the inhibition at 0.5 µM was 30 to 50%.

For the compound `Oc1c2c(nn1-c1ccccn1)CCCC2` [compound 1], the inhibition at 0.5 µM is below 30%.

Turning to `O=C(O)c1ccc(-n2nc3c(c2O)CN(Cc2ccccc2)CC3)cc1` [compound 81], the inhibition at 0.5 µM was above 70%.

Consider `C#CCN1CCc2c(nn(-c3ccccn3)c2O)C1` [compound 16], for which the inhibition at 0.5 µM is below 30%.

Regarding `Oc1c2c(nn1-c1ccccn1)CCN(Cc1cc3ccccc3cn1)C2` [compound 79], the inhibition at 0.5 µM was 50 to 70%.

For `N#Cc1ccc(CN2CCc3c(nn(-c4ccccn4)c3O)C2)cc1` [compound 8], the inhibition at 0.5 µM was 50 to 70%.

As for `N#Cc1ccc(CN2CCc3nn(-c4ccccn4)c(O)c3C2)cc1` [compound 75], the inhibition at 0.5 µM was in the range of 50 to 70%.

As to `Cc1ccc(CN2CCc3c(nn(-c4ccccn4)c3O)C2)cc1` [compound 7], the inhibition at 0.5 µM fell in the range of 30 to 50%.

For `Oc1c2c(nn1-c1ccc(C(F)(F)F)cn1)CCN(Cc1ccccc1)C2` [compound 39], the inhibition at 0.5 µM is below 30%.

`Oc1c2c(nn1-c1ccc(C(F)(F)F)cn1)CN(Cc1ccccc1)CC2` [compound 4]: the inhibition at 0.5 µM was in the range of 30 to 50%.

For the compound `O=C(O)c1ccc(-n2nc3c(c2O)CCN(Cc2ccccc2)C3)cc1` [compound 36], the inhibition at 0.5 µM was above 70%.

With `Oc1c2c(nn1-c1ccc(C(F)(F)F)cn1)CCCC2` [compound 2], the inhibition at 0.5 µM was below 30%.

For `Oc1c2c(nn1-c1ccccn1)CN(Cc1cccc(C(F)(F)F)c1)CC2` [compound 10], the inhibition at 0.5 µM lay in the range of 30 to 50%.

In the case of `O=S(=O)(c1ccccc1)N1CCc2c(nn(-c3ccccn3)c2O)C1` [compound 26], the inhibition at 0.5 µM was in the range of 50 to 70%.

As to `Oc1c2c(nn1-c1ccccn1)CN(Cc1cc(F)cc(F)c1)CC2` [compound 9], the inhibition at 0.5 µM was 50 to 70%.

The test is the same for the next values; noted with them: synthetic example compounds 0.5 uM, 0.5 µM.
With `Oc1c2c(nn1-c1ccc(C(F)(F)F)cn1)CCN(Cc1cccc(C(F)(F)F)c1)C2` [compound 78], the “ROS production inhibitory effect” value was “*** (***: 50 < <70%)”.

In another test the test system is STAM mice. The experiment in a line: Non-alcoholic steatohepatitis and liver fibrosis STAM mouse model. The class given is in vivo. The conditions noted are these: STAM+TEL; 10 mg/kg orally once a day for 28 days; STAM+vehicle 0.93±0.36, normal control 0.29±0.06. An excerpt:
In order to confirm the therapeutic effect for non-alcoholic steatohepatitis and liver fibrosis of the synthetic example compound of the present invention, non-alcoholic steatohepatitis and liver fibrosis-induced STAM mice (6-week-old, female, SMC laborlabories Inc, Japan) were used. All the mice were maintained under a standard condition. The experiment was progressed by dividing the experimental animals into a normal control group in which distilled water was orally administered (negative control), STAM group in which non-alcoholic steatohepatitis and fibrosis were induced (vehicle control), an experimental group in which telmisartane of 10 mg/kg was orally administered daily as a STAM positive control group (STAM+TEL), and an experimental group in which the synthetic example compound of 3 or 10 mg/kg was orally administered daily (STAM+Synthetic example) as 7 mice per group. The telmisartane and synthetic example compound were orally administered once a day for 28 days.
After completing the test, the animals were anesthetized and liver tissue was extracted for each individual, and blood was taken for examination. The weight of the liver tissue was measured and it was photographed. The tissue was fixed in 10% buffered neutral formalin solution. […]
Consider `CCCc1nc2c(C)cc(-c3nc4ccccc4n3C)cc2n1Cc1ccc(-c2ccccc2C(=O)O)cc1` [telmisartane], for which the “liver fibrosis area (Sirius red staining)” value worked out at 0.44±0.15.

Still in this test, the particulars now being: STAM+TEL; 10 mg/kg orally once a day for 28 days; STAM+vehicle 4.8±0.7, normal control 0.0±0.0.
As to `CCCc1nc2c(C)cc(-c3nc4ccccc4n3C)cc2n1Cc1ccc(-c2ccccc2C(=O)O)cc1` [telmisartane], the “improved NAS score” value is given as 2.8±0.7.

In a further test the test system is NHLF cells. The experiment in a line: ROS production in NHLF cells (L-012 or DCF-DA). The test is classed as cell-based, human. The conditions noted are these: FIG. 1.
Excerpt: as §1
(§2) NHLF (normal human lung fibroblast, Lonza), LX-2 (human hepatic stellate cells, Sigma), ARPE19 (human retinal pigment epithelial cell, ATCC), KEL-FIB (keloid fibroblast, ATCC) cells were suspended in a culture medium comprising 10% FBS and aliquoted in a 96 well plate, and then cultured under the condition of 5% CO2, 37° C. for 24 hours. The synthetic example compound was pretreated from 30 minutes to 1 hour, and then a ROS stimulus was treated to each well comprising cells and a drug. After additional culturing for 48 hours, the level of ROS production was confirmed by using L-012 or DCF-DA.
As for `Oc1c2c(nn1-c1ccccn1)CCN(Cc1ccccc1)C2` [Synthetic example 34, 5-benzyl-2-(pyridin-2-yl)-4,5,6,7-tetrahydro-2H-pyrazolo[4,3-c]pyridin-3-ol], the “inhibition of ROS production induced by PMA” value is “inhibited ROS production”.

Another test concerns LX-2 cells. The experiment in a line: ROS production in LX-2 cells (L-012 or DCF-DA). The test is classed as cell-based, human. The conditions noted are these: FIG. 1.
Excerpt: as §1, §2
Consider `Oc1c2c(nn1-c1ccccn1)CCN(Cc1ccccc1)C2` [Synthetic example 34, 5-benzyl-2-(pyridin-2-yl)-4,5,6,7-tetrahydro-2H-pyrazolo[4,3-c]pyridin-3-ol], for which the “inhibition of ROS production induced by PMA” value is on record as “inhibited ROS production”.

The test system of another test is bleomycin-induced pulmonary fibrosis mouse model. Briefly: Bleomycin-induced pulmonary fibrosis mouse model. Conditions: BLM+NIN; 100 mg/kg orally once a day for 28 days; BLM group 5.4±0.5, negative control 0.4±0.55. The test is classed as in vivo. The protocol: As a bleomycin-induced pulmonary fibrosis mouse model, 5-week-old, C57BL/6J male mice weighing 20 g before and after were used. The experiment was progressed by dividing the experimental animals into a control group in which distilled water was orally administered (Control), a group in which pulmonary fibrosis was caused by bleomycin (BLM), an experimental group in which bleomycin was administered and in 3 weeks, as a positive control group, nintedanib of 100 mg/kg was orally administered daily (BLM+NIN), and an experimental group in which bleomycin was administered and in 3 weeks, the synthetic example compound of the present invention of 3 mg/kg was orally administered daily (BLM+Synthetic example) as 7 mice per group.
The nintedanib and synthetic example compound was orally administered once a day for 28 days. […]
Comprehensively, based on the above histological and immunological results, by quantifying with improved Ashcroft scores (modified Ashcroft scale) widely used in the pulmonary fibrosis tissue analysis field, the severity of pulmonary fibrosis of each of the synthetic example compound administration groups (BLM+Synthetic example) compared to the negative control group (control), experimental group (BLM), positive control group was evaluated. […] For the experimental result, the mean and standard deviation were calculated using SPSS ver. […]
`COC(=O)c1ccc2c(c1)NC(=O)/C2=C(\Nc1ccc(N(C)C(=O)CN2CCN(C)CC2)cc1)c1ccccc1` [nintedanib]: the “improved Ashcroft score (modified Ashcroft scale)” value was found to be 5.0±0.
